# pEC50: −log10 of the molar value. Primed or numbered codes have the meaning given here. * marks the point of attachment. 10Ca = carbamate linkage conjugating the peptide-PEG to paclitaxel at C10; 10Ca‑PXL = paclitaxel conjugated at C10 via a carbamate; 3Am‑VBL = vinblastine (VBL) conjugate; 3′Alk‑MAL(9) = not defined here; ALK(6) = not defined here; MAL(9) = not defined here; 3′Alk = not defined here; PEG(11) = PEG(11) linker; PEG(29) = PEG(29) linker; 10Es = not defined here; PEG(11)″ = PEG11 linker; 3Am = not defined here; Cbz = O=C(OCc1ccccc1)*; PEG(13) = PEG13 linker; Boc = CC(C)(C)OC(=O)*; Piv = CC(C)(C)C(=O)*; OBn = c1ccc(CO*)cc1; DOX = doxorubicin; VBL = vinblastine; PXL = paclitaxel
# What was measured:
# Human Src = target: T1, Human Src (Homo sapiens, UniProt P12931); assay: Src kinase assay (PKLight ATP utilization, substrate phosphorylation as % of parent peptide); assay type: biochemical; conditions: for Src (Qual. Act.): DOX-Src kinase substrate conjugates
# T1 construct: purchased Upstate (Charlottesville, Va.) 14-326
# Method: Another test may involve monitoring the consumption of ATP. For example, ATP concentrations at time 0 or after 4 hour incubation may be monitored by luciferase reaction (PKLight kit obtained from Cambrex Corporation, One Meadowlands Plaza, East Rutherford, N.J. 07073), which generate a luminescence readout in the presence of ATP. Assays are initiated by mixing a kinase and a peptide in the presence of 40 μM ATP. After 4 hour of incubation at 30° C., PKLight reagent is added and mixed well, and luminescence readout measured. The rate of peptide phosphorylation is then directly related to the rate of decrease in the observed luminescence. Based on the first test, linkers of appropriate lengths and peptides with an effective amount of kinase activity which may be expected to be retained in the drug conjugate may be found.
# Human Src (#14-326) and Akt (#14-276) kinases were purchased from Upstate (Charlottesville, Va.). Kinase reactions were carried out in 50 μl kinase reaction cocktail (25 mM Tris-HCl, pH 7.5, 5 μM β-glycerophosphate, 2 mM DTT, 0.1 mM Na3VO4, 10 mM MgCl2, 1 mg/ml BSA, […], 0.5 to 1.0 units enzyme). Substrates (peptide or drug-peptide conjugate in […]) were added (25, 50 and 100 μM) and the reaction was incubated for 2-5 hours at 30° C. PKLight reagent (23 μl) (Cambrex BioSciences, Rockland, Me.) was mixed with […] of the above kinase reaction and ATP utilization relative to no substrate and no ATP controls was determined by measuring luminescence with a SpectraMax Gemini EM plate reader (Molecular Devices, Sunnyvale, Calif.). Peptide substrates for Src and Akt have been described. For examples, see Lou et al. Letters in Peptide Science, 2, 289-296 (1995); Lou et al. Bioorganic & Medicinal Chemistry, 4, 677-682 (1996); Alessi et al. FEBS Letters, 399, 333-338 (1996). Substrate phosphorylation potential was determined from the linear portion of the substrate concentration dose response as a percentage of the activity observed with the parent peptide used for drug conjugation.
# tubulin = assay: Fluorescence-based tubulin polymerization assay (MPA; enhancement for paclitaxel, inhibition for vinblastine); assay type: biochemical
# From the text: Drug-linker constructs may further be screened using functional assays predictive of biological activity. […] Tubulin assembly or inhibition thereof may be monitored by fluorescence using the CytoDYNAMIX Screen™ 10 kit available from Cytoskeleton (1830 S. Acoma St., Denver, Colo.). […] Emission is monitored at 405 nm with excitation at 360 nm. […] Tubulin assembly or inhibition may also be monitored by light scattering which is approximated by the apparent absorption at 350 nm. For paclitaxel drug conjugates BSA is employed to prevent aggregation and glycerol, which is a tubulin polymerization enhancer, is omitted from the kit to increase the signal to noise ratio.
# The assay kit (#BK011) was purchased from Cytoskeleton (Denver, Colo.). The assays were carried out according to the manufacturer's instructions, except that 1 mg/ml BSA (Sigma #A3059) was included in all assays. […] Parent drugs and conjugates were tested at 0.75, 1.5, 3 and 10 micromolar final concentration and results represent a comparison of conjugate and parent drug curves obtained from the linear range of the dose responses.
# (±SD) represent the average of all tests carried out for all lots of a given compound.
# [1] = test system: HT-29 colorectal carcinoma; assay: Cytotoxicity assay (monolayer), HT-29; assay type: cell-based; conditions: HT29, ML (monolayer); read-out: HT29 (EC50 Ave) ML;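 note: monolayer cultures tested in triplicate, compound exposure for three days against DMSO vehicle controls, EC50 fitted from dose-response curves and averaged across all tests and lots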
# MCF-7 breast carcinoma = assay: Cytotoxicity assay (monolayer), MCF-7; assay type: cell-based; conditions: MCF7, ML (monolayer); read-out: MCF7 (EC50 Ave) ML;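 note: cells treated 72 h with 6-8 compound doses versus DMSO vehicle controls, EC50 fitted by 4-parameter dose-response curves, averaged across all tests and lots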
# HUVEC = assay: Cytotoxicity assay (monolayer), HUVEC; assay type: cell-based; conditions: ML (monolayer), read-out: HUVEC (EC50 Ave) ML
# [2] = test system: Normal human foreskin fibroblasts (HFF); conditions: read-out: HFF (EC50 Ave) ML; HFF, ML (monolayer)
Substance,Average src kinase activity (Human Src),Ave. MPA Act. (tubulin),pEC50 [1],pEC50 (MCF-7 breast carcinoma),pEC50 (HUVEC),Src (Qual. Act.) (Human Src),pEC50 [2]
Ac-E(Bzl)YIYGSFK(CBz)-PEG(13)-10Ca-PXL (Ac-E(OBn)YIYGSFK(Cbz)-{PEG(13)-10Ca-PXL}),Zero,A (A<50),–,–,–,–,–
"Ac-EYIFGSFK-PEG(13)-10Ca-PXL (N-acetyl, PEG13, paclitaxel conjugate)",Zero,B (B=50-80),< 7.00,< 7.00,< 7.00,–,–
Ac-EYIYGSFK(CBz)-PEG(13)-10Ca-PXL (Ac-EYIYGSFK(Cbz)-{PEG(13)-10Ca-PXL}),B (B=20-40),A (A<50),< 7.00,< 7.00,< 7.00,–,–
Ac-EYIYGSFK-3′Alk-MAL(9)-DOX (Ac-EYIYGSFK-{3′Alk‑MAL(9)-DOX}; reading uncertain; also: printed as Ac-EYIYGSFK-3′Alk-MAL(9)-DOX),–,–,–,< 7.00,< 7.00,C (C>40),< 7.00
"Ac-EYIYGSFR-PEG(13)-10Ca-PXL (N-acetyl, PEG13, paclitaxel conjugate)",B (B=20-40),B (B=50-80),< 7.00,< 7.00,< 7.00,–,< 7.00
Ac-YIFGSFK(BOC)-PEG(11)-3Am-VBL (Ac-YIFGSFK(Boc)-{PEG(11)″-3Am-VBL}; reading uncertain; also: printed as Ac-YIFGSFK(BOC)-PEG(11)-3Am-VBL),B (B=20-40),B (B=50-80),< 7.00,< 7.00,< 7.00,–,< 7.00
Ac-YIFGSFK-PEG(11)-3Am-VBL (N-acetyl; PEG(11) linker; vinblastine conjugate),C (C>40),B (B=50-80),< 7.00,< 7.00,< 7.00,–,< 7.00
Ac-YIYGSFH-PEG(11)-3Am-VBL (N-acetyl; PEG(11) linker; vinblastine conjugate),C (C>40),C (C>80),< 7.00,< 7.00,< 7.00,–,< 7.00
Ac-YIYGSFK-3′Alk-MAL(9)-DOX (Ac-YIYGSFK-{3′Alk-MAL(9)-DOX}; reading uncertain; also: printed as Ac-YIYGSFK-3′Alk-MAL(9)-DOX),–,–,–,< 7.00,–,C (C>40),–
Ac-YIYGSFK-PEG(13)-10Ca-PXL (N-acetyl; PEG(13) linker; paclitaxel conjugate),C (C>40),B (B=50-80),< 7.00,< 7.00,< 7.00,–,–
Ac-YIYGSFR-PEG(13)-10Ca-PXL (N-acetyl; PEG(13) linker; paclitaxel conjugate),C (C>40),B (B=50-80),< 7.00,< 7.00,< 7.00,–,< 7.00
Ac-YIYGSFS-PEG(11)-3Am-VBL (N-acetyl; PEG(11) linker; vinblastine conjugate),C (C>40),B (B=50-80),< 7.00,< 7.00,< 7.00,–,< 7.00
BOC-GIYWHHY-PEG(11)-3Am-VBL (N-BOC; PEG(11) linker; vinblastine conjugate),A (A<20),B (B=50-80),< 7.00,< 7.00,–,–,–
BOC-GIYWHHY-PEG(29)-3Am-VBL (N-BOC; PEG(29) linker; vinblastine conjugate),A (A<20),B (B=50-80),–,< 7.00,< 7.00,–,< 7.00
"BOC-YI(phospho)YGSFK(BOC)-PEG(11)-3Am-VBL (Boc-YIYGSFK(Boc)-{PEG(11)-3Am-VBL}; reading uncertain; also: phospho at I2 as written: I(phospho), printed as BOC-YI(phospho)YGSFK(BOC)-PEG(11)-3Am-VBL)",C (C>40),C (C>80),–,< 7.00,< 7.00,–,7.00 to 7.70
BOC-YIYGSFK(BOC)-PEG(11)-3Am-VBL (N-BOC; BOC side chain; PEG(11); vinblastine conjugate),A (A<20),B (B=50-80),7.00 to 7.70,7.00 to 7.70,< 7.00,–,< 7.00
BOC-YIYGSFS-PEG(11)-3Am-VBL (N-BOC; PEG(11) linker; vinblastine conjugate),C (C>40),C (C>80),< 7.00,< 7.00,< 7.00,–,< 7.00
CBz-GIYWHHY-PEG(11)-3Am-VBL (N-CBz; PEG(11) linker; vinblastine conjugate),A (A<20),B (B=50-80),< 7.00,< 7.00,–,–,–
CBz-YIYGSFK(BOC)-PEG(11)-3Am-VBL (Cbz-YIYGSFK(Boc)-{PEG(11)-3Am-VBL}; reading uncertain; also: printed as CBz-YIYGSFK(BOC)-PEG(11)-3Am-VBL),A (A<20),C (C>80),< 7.00,< 7.00,< 7.00,–,–
CBz-YIYGSFK(CBz)-ALK(6)-10Es-PXL (Cbz-YIYGSFK(Cbz)-{ALK(6)-10Es-PXL}; reading uncertain; also: printed as CBz-YIYGSFK(CBz)-ALK(6)-10Es-PXL),Zero,–,< 7.00,7.00 to 7.70,–,–,–
CBz-YIYGSFK-3′Alk-MAL(9)-DOX (Cbz-YIYGSFK-{3′Alk-MAL(9)-DOX}; reading uncertain; also: printed as CBz-YIYGSFK-3′Alk-MAL(9)-DOX),–,–,–,< 7.00,< 7.00,C (C>40),–
H-GIYWHHY-PEG(29)-3Am-VBL (H-GIYWHHY-{PEG(29)-3Am-VBL}; reading uncertain),C (C>40),C (C>80),–,< 7.00,< 7.00,–,< 7.00
H-YIYGSFK-3′Alk-MAL(9)-DOX (H-YIYGSFK-{3′Alk-MAL(9)-DOX}; reading uncertain),–,–,–,< 7.00,–,C (C>40),< 7.00
H-YIYGSFK-ALK(6)-10Es-PXL (H-YIYGSFK-{ALK(6)-10Es-PXL}; reading uncertain),C (C>40),B (B=50-80),< 7.00,< 7.00,–,–,< 7.00
Pv-GRSRTSSFAEG-PEG(13)-10Ca-PXl (Piv-GRSRTSSFAEG-{PEG(13)-10Ca‑PXL}; also: 2 TFA salt),–,C (C>80),–,–,–,–,–
Pv-RLVAYEGYV-PEG(11)-3Am-VBL (Piv-RLVAYEGYV-{PEG(11)-3Am‑VBL}),–,B (B=50-80),< 7.00,< 7.00,< 7.00,–,< 7.00
Pv-RLVAYEGYV-PEG(13)-10Ca-PXL (Piv-RLVAYEGYV-{PEG(13)-10Ca‑PXL}),–,A (A<50),< 7.00,< 7.00,< 7.00,–,< 7.00
